{"source": "patent US20090069300A1", "about": "“ISOQUINOLINYL AND ISOINDOLINYL DERIVATIVES AS HISTAMINE-3 ANTAGONISTS” (Wyeth, priority 2007, published 2009)", "note": "Counter-ions that a name gives are not always drawn.", "data": [{"target": "T1, Human Histamine H3 Receptor (Homo sapiens, UniProt Q9Y5N1)", "T1 construct": "expressed in transfected cells; host or cells: HEK293T (stably transfected; membranes prepared from the cells)", "T1 sequence (Q9Y5N1 whole entry)": "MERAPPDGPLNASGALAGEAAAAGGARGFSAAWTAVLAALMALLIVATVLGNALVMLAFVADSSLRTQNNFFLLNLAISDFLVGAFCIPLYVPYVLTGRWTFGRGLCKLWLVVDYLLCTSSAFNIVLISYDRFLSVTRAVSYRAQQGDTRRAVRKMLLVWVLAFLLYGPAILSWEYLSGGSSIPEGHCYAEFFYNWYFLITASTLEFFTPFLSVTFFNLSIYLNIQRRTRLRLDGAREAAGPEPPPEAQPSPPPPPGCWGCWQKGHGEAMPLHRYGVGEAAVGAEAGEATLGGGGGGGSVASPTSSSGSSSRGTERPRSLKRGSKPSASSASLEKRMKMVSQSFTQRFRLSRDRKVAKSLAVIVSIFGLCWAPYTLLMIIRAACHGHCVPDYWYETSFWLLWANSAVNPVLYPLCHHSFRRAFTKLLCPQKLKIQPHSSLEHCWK", "test": "Methyl histamine binding in human histamine H3 receptor cell line", "conditions": "not given", "procedure": "(§1) Evaluation of Methyl Histamine Binding in Human Histamine H3 Receptor Cell Line\n(§2) The affinity of test compounds for the histamine 3 (H3) receptor is evaluated in the following manner. […] Cells are scraped from the plate, transferred to centrifuge tubes, washed one time in PBS by centrifugation in a Sorvall RT7 Plus centrifuge (2000 rpm 10 minutes, 4° C.). The resulting pellets are stored at −80° C. until ready for use. Cells are re-suspended in buffer (50 mM Tris pH=7.5) and placed in a Dounce homogenizer, douncing ten times to homogenize cells. The homogenate is spun down by centrifugation (Sorvall RT7 Plus, 1800 rpm 10 minutes, 4° C.). The supernatant is placed in a Corex tube and spun down by centrifugation (Sorvall RC 5c Plus, 17,000 rpm 20 minutes, 4° C.). The pellet is resuspended in buffer (50 mM Tris, pH 7.5). Protein concentration (ug/ul) is determined using the Micro-BCA Protein Determination. The binding assay is set up in a 96 well microtiter plate in a total volume of 250 uL. Non-specific binding is determined in the presence of 10 uM clobenpropit. The final radioligand concentration is 1 nM. The test compound is serially diluted using the Beckman Biomek2000 to a final approximate range of 100 uM to 100 pM. Membranes are suspended in buffer, homogenized in 2 bursts of ten seconds using a Vitris mechanical homogenizer set at power setting 5. Ten μg of membranes are added to each well. Following a one hour incubation at 30° C., the reaction is terminated by the addition of ice cold buffer and rapid filtration with a Packard Filtermate Harvester through a GF/B filter pre-soaked with 1% PEI for one hour. The plate is dried for one hour at 37° C. and 60 μL Microscint Scintillant is added to each well. The CPM per well is measured on a Packard Top Count NXT. Ki values are determined in nM. […] CPM values are expressed as % specific binding and plotted vs compound concentration. A curve is fitted using a four-parameter logistic fit and the IC50 value is determined. The Ki is calculated from this using the Cheng-Prusoff equation: […]=IC50/1+(L/Kd) where L=concentration of free radioligand used in the assay, and Kd is the dissociation constant of the radioligand for the receptor. L is determined for each experiment by counting an aliquot of the diluted radioligand (corresponding to that added to each well) and the Kd has previously been determined under identical conditions for this cell line/radioligand.", "units": {"Ki": "µM"}, "values": [{"molecule": "O=C(NCCCl)c1ccc(-c2ccc3c(c2)CCN(CCN2CCCC2)C3=O)cc1", "note": "[Example 123, N-(2-chloroethyl)-4-[1-oxo-2-(2-pyrrolidin-1-ylethyl)-1,2,3,4-tetrahydroisoquinolin-6-yl]benzamide]", "Ki": "< 0.01"}]}, {"target": "T1, Human Histamine H3 Receptor", "test": "Methyl histamine binding in human histamine H3 receptor cell line", "conditions": "read-out: H3 Binding Ki", "procedure": "as §1, §2", "units": {"Ki": "µM"}, "values": [{"molecule": "CNC(=O)c1ccc(-c2ccc3c(c2)C(=O)N(CCN2CCC[C@H]2C)CC3)cc1", "note": "[Example 83, N-methyl-4-(2-{2-[(2R)-2-methylpyrrolidin-1-yl]ethyl}-1-oxo-1,2,3,4-tetrahydroiso-quinolin-7-yl)benzamide]", "Ki": "< 0.01"}, {"molecule": "CCNC(=O)c1ccc(-c2ccc3c(c2)C(=O)N(CCN2CCC[C@H]2C)CC3)cc1", "note": "[Example 84, N-ethyl-4-(2-{2-[(2R)-2-methylpyrrolidin-1-yl]ethyl}-1-oxo-1,2,3,4-tetrahydroiso-quinolin-7-yl)benzamide]", "Ki": "< 0.01"}, {"molecule": "CC(C)NC(=O)c1ccc(-c2ccc3c(c2)C(=O)N(CCN2CCC[C@H]2C)CC3)cc1", "note": "[Example 85, N-isopropyl-4-(2-{2-[(2R)-2-methylpyrrolidin-1-yl]ethyl}-1-oxo-1,2,3,4-tetrahydroiso-quinolin-7-yl)benzamide]", "Ki": "< 0.01"}, {"molecule": "C[C@@H]1CCCN1CCN1CCc2ccc(-c3ccc(C(=O)N4CCCC4)cc3)cc2C1=O", "note": "[Example 86, 2-{2-[(2R)-2-methylpyrrolidin-1-yl]ethyl}-7-[4-(pyrrolidin-1-ylcarbonyl)phenyl]-3,4-dihydroisoquinolin-1(2H)-one]", "Ki": "< 0.01"}, {"molecule": "NC(=O)c1ccc(Oc2ccc3c(c2)CCN(CCN2CCCC2)C3=O)cc1", "note": "[Example 91, 4-{[1-oxo-2-(2-pyrrolidin-1-ylethyl)-1,2,3,4-tetrahydroisoquinolin-6-yl]oxy}benzamide]", "Ki": "0.0101 to 0.025"}, {"molecule": "CN(C)C(=O)c1ccc(Oc2ccc3c(c2)CCN(CCN2CCCC2)C3=O)cc1", "note": "[Example 95, N,N-dimethyl-4-{[1-oxo-2-(2-pyrrolidin-1-ylethyl)-1,2,3,4-tetrahydroisoquinolin-6-yl]oxy}benzamide]", "Ki": "0.0251 to 0.05"}, {"molecule": "CCN(CC)C(=O)c1ccc(Oc2ccc3c(c2)CCN(CCN2CCCC2)C3=O)cc1", "note": "[Example 96, N,N-diethyl-4-{[1-oxo-2-(2-pyrrolidin-1-ylethyl)-1,2,3,4-tetrahydroisoquinolin-6-yl]oxy}benzamide]", "Ki": "0.0251 to 0.05"}, {"molecule": "O=C(c1ccc(Oc2ccc3c(c2)CCN(CCN2CCCC2)C3=O)cc1)N1CCCC1", "note": "[Example 98, 6-[4-(pyrrolidin-1-ylcarbonyl)phenoxy]-2-(2-pyrrolidin-1-ylethyl)-3,4-dihydroiso-quinolin-1(2H)-one]", "Ki": "< 0.01"}, {"molecule": "CNC(=O)c1ccc(Oc2ccc3c(c2)CCN(CCN2CCCC2)C3=O)nc1", "note": "[Example 101, N-Methyl-6-(1-oxo-2-(2-(pyrrolidin-1-yl)ethyl)-1,2,3,4-tetrahydro-isoquinolin-6-yloxy)nicotinamide hydrochloride]", "Ki": "0.0251 to 0.05"}, {"molecule": "CON(C)C(=O)c1ccc(-c2ccc3c(c2)CCN(CCN2CCCC2)C3=O)cc1", "note": "[Example 102, N-methoxy-N-methyl-4-(1-oxo-2-(2-(pyrrolidin-1-yl)ethyl)-1,2,3,4-tetrahydroisoqui-nolin-6-yl)benzamide]", "Ki": "< 0.01"}, {"molecule": "O=C1c2ccc(-n3cnc4ccccc43)cc2CCN1CCN1CCCC1", "note": "[Example 108, 6-(1H-benzimidazol-1-yl)-2-(2-pyrrolidin-1-ylethyl)-3,4-dihydroisoquinolin-1(2H)-one Fumarate Salt]", "Ki": "< 0.01"}, {"molecule": "O=C1c2ccc(Cn3cnc4ccccc43)cc2CN1CCN1CCCC1", "note": "[Example 112, 5-(1H-benzimidazol-1-ylmethyl)-2-(2-pyrrolidin-1-ylethyl)iso-indolin-1-one]", "Ki": "0.0251 to 0.05"}, {"molecule": "CNC(=O)c1ccc(-c2ccc3c(c2)CN(CCN2CCC[C@H]2C)C3=O)cc1", "note": "[Example 118, N-methyl-4-(2-{2-[(2R)-2-methylpyrrolidin-1-yl]ethyl}-1-oxo-2,3-dihydro-1H-isoindol-5-yl)benzamide]", "Ki": "0.0501 to 0.1"}, {"molecule": "C[C@@H]1CCCN1CCN1CCc2cc(OCc3ccc(C#N)cc3)ccc2C1=O", "note": "[Example 120, (R)-4-((2-(2-(2-Methylpyrrolidin-1-yl)ethyl)-1-oxo-1,2,3,4-tetra-hydroisoquinolin-6-yloxy)methyl)benzonitrile hydrochloride]", "Ki": "< 0.01"}, {"molecule": "O=C(NCc1cccs1)c1ccc(-c2ccc3c(c2)CCN(CCN2CCCC2)C3=O)cc1", "note": "[Example 121, 4-[1-oxo-2-(2-pyrrolidin-1-ylethyl)-1,2,3,4-tetrahydroisoquinolin-6-yl]-N-(2-thienylmethyl)benzamide]", "Ki": "< 0.01"}, {"molecule": "O=C(c1ccc(-c2ccc3c(c2)CCN(CCN2CCCC2)C3=O)cc1)N1CCOCC1", "note": "[Example 122, 6-[4-(morpholin-4-ylcarbonyl)phenyl]-2-(2-pyrrolidin-1-ylethyl)-3,4-dihydroisoquinolin-1(2H)-one]", "Ki": "< 0.01"}, {"molecule": "CCN(C)C(=O)c1ccc(-c2ccc3c(c2)CCN(CCN2CCCC2)C3=O)cc1", "note": "[Example 124, N-ethyl-N-methyl-4-[1-oxo-2-(2-pyrrolidin-1-ylethyl)-1,2,3,4-tetrahydroisoquinolin-6-yl]benzamide]", "Ki": "< 0.01"}, {"molecule": "O=C(NCc1ccco1)c1ccc(-c2ccc3c(c2)CCN(CCN2CCCC2)C3=O)cc1", "note": "[Example 125, N-(2-furylmethyl)-4-[1-oxo-2-(2-pyrrolidin-1-ylethyl)-1,2,3,4-tetrahydroisoquinolin-6-yl]benzamide]", "Ki": "< 0.01"}, {"molecule": "COC[C@H](C)NC(=O)c1ccc(-c2ccc3c(c2)CCN(CCN2CCCC2)C3=O)cc1", "note": "[Example 126, N-[(1S)-2-methoxy-1-methylethyl]-4-[1-oxo-2-(2-pyrrolidin-1-ylethyl)-1,2,3,4-tetrahydroisoquinolin-6-yl]benzamide]", "Ki": "< 0.01"}, {"molecule": "COC1CCN(C(=O)c2ccc(-c3ccc4c(c3)CCN(CCN3CCCC3)C4=O)cc2)C1", "note": "(centres unmarked) [Example 127, 6-{4-[(3-methoxypyrrolidin-1-yl)carbonyl]phenyl}-2-(2-pyrrolidin-1-ylethyl)-3,4-dihydroisoquinolin-1(2H)-one]", "Ki": "< 0.01"}, {"molecule": "COC[C@@H]1CCCN1C(=O)c1ccc(-c2ccc3c(c2)CCN(CCN2CCCC2)C3=O)cc1", "note": "[Example 128, 6-(4-{[(2S)-2-(methoxymethyl)pyrrolidin-1-yl]carbonyl}phenyl)-2-(2-pyrrolidin-1-ylethyl)-3,4-dihydroisoquinolin-1(2H)-one]", "Ki": "< 0.01"}, {"molecule": "O=C(Nc1nccs1)c1ccc(-c2ccc3c(c2)CCN(CCN2CCCC2)C3=O)cc1", "note": "[Example 130, 4-[1-oxo-2-(2-pyrrolidin-1-ylethyl)-1,2,3,4-tetrahydroisoquinolin-6-yl]-N-1,3-thiazol-2-ylbenzamide]", "Ki": "< 0.01"}, {"molecule": "O=C(c1cc(-c2ccc3c(c2)CCN(CCN2CCCC2)C3=O)ccc1F)N1CCCC1", "note": "[Example 131, 6-[4-fluoro-3-(pyrrolidin-1-ylcarbonyl)phenyl]-2-(2-pyrrolidin-1-ylethyl)-3,4-dihydroisoquinolin-1-(2H)-one]", "Ki": "< 0.01"}, {"molecule": "CN(C)C(=O)c1cc(-c2ccc3c(c2)CCN(CCN2CCCC2)C3=O)ccc1F", "note": "[Example 132, 2-fluoro-N,N-dimethyl-5-[1-oxo-2-(2-pyrrolidin-1-ylethyl)-1,2,3,4-tetrahydroisoquinolin-6-yl]benzamide]", "Ki": "< 0.01"}, {"molecule": "O=C(c1ccc(-c2ccc3c(c2)CCN(CCN2CCCC2)C3=O)cc1Cl)N1CCCC1", "note": "[Example 134, 6-[3-chloro-4-(pyrrolidin-1-ylcarbonyl)phenyl]-2-(2-pyrrolidin-1-ylethyl)-3,4-dihydroisoquinolin-1(2H)-one]", "Ki": "< 0.01"}]}]}
